Results published in US10239849B2 (Merck Sharp & Dohme Corp., priority 2015, dated 2019).

What was measured:
[1] = target: T1, glutathione-S-transferase (GST) tagged LXRbeta LBD (ligand binding domain) (Homo sapiens, UniProt P55055); experiment: LanthaScreen TR-FRET Liver X Receptor Coactivator Assay, LXR beta-LBD; assay type: biochemical; conditions: for Emax: read-out: LXR beta activity at max dose (%) (Emax); for EC50: potency (Inflection Point) of co-activator recruitment, TR-FRET, read-out: LXR beta IP
T1 construct: purchased Invitrogen pv4658.pps
T1 sequence (P55055 222-460 limits assumed): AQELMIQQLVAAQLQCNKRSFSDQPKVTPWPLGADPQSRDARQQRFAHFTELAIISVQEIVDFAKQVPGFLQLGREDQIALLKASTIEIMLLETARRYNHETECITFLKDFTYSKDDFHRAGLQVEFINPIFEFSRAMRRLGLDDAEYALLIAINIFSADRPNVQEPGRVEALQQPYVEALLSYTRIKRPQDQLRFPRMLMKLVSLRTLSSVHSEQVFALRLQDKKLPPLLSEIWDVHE
Method: (§1) While running the LanthaScreen™ TR-FRET Liver X Receptor Coactivator Assay, LXR alpha-LBD or LXR beta-LBD was added to ligand test compounds followed by addition of a mixture of a fluorescein-labelled coactivator peptide and terbium-conjugated anti-GST antibody. After an incubation period at room temperature, TR-FRET (time-resolved fluorescence resonance energy transfer) was measured using a filter-based instrument capable of TR-FRET, e.g. PerkinElmer Envision.

[2] = target: T2, glutathione-S-transferase (GST) tagged LXRalpha LBD (ligand binding domain) (Homo sapiens, UniProt Q13133); experiment: LanthaScreen TR-FRET Liver X Receptor Coactivator Assay, LXR alpha-LBD; assay type: biochemical; conditions: for Emax: read-out: LXR alpha activity at max dose (%) (Emax); for EC50: potency (Inflection Point) of co-activator recruitment, TR-FRET, read-out: LXR alpha IP
T2 construct: purchased Invitrogen pv4655
T2 sequence (Q13133 209-447 limits assumed): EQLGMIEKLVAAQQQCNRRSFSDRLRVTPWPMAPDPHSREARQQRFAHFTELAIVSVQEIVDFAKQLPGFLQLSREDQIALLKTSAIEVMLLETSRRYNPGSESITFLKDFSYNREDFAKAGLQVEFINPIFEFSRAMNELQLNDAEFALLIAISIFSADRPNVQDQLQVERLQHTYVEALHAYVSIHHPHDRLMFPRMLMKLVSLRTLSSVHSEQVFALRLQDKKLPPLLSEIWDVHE
Method: as §1

[3] = efficacy in relation to reference dual agonist T1317

Structure (SMILES) | Emax [1, 3] [%] | EC50 [1] [nM] | Emax [2, 3] [%] | EC50 [2] [nM] | LXR beta activity at max dose (%) (Emax) [1, 3] | LXR alpha activity at max dose (%) (Emax) [2, 3]
CC(C)C(O)(C(=O)N1CCN(c2ncc(-c3cc(Cl)c(C(=O)N(C)C)c(Cl)c3)cc2C#N)CC1)C(F)(F)F (single isomer, unassigned) [Example 7-5, 2,6-dichloro-4-(5-cyano-6-{4-[2-hydroxy-3-methyl-2-(trifluoromethyl)butanoyl]piperazin-1-yl}pyridin-3-yl)-N,N-dimethylbenzamide] | 93 | 12 | 41 | 929 | – | –
CC(C)C(O)(C(=O)N1CCN(c2ncc(-c3cc(Cl)c(C(=O)N(C)C)c(Cl)c3)cc2C#N)CC1)C(F)(F)F (single isomer, unassigned) [Example 7-6, 2,6-dichloro-4-(5-cyano-6-{4-[2-hydroxy-3-methyl-2-(trifluoromethyl)butanoyl]piperazin-1-yl}pyridin-3-yl)-N,N-dimethylbenzamide] | – | 34 | – | 760 | 79 | 28
CN(C)C(=O)c1ccc(-c2cnc(N3CCN(S(=O)(=O)C4CC4)CC3)c(C#N)c2)cc1Cl [Example 1-2, 2-chloro-4-{5-cyano-6-[4-(cyclopropylsulfonyl)piperazin-1-yl]pyridin-3-yl}-N,N-dimethylbenzamide] | 68 | 543 | 37 | 22500 | – | –
CN(C)C(=O)c1ccc(-c2cnc(N3CCN(S(=O)(=O)C(F)F)CC3)c(C#N)c2)cc1Cl [Example 1-3, 2-chloro-4-(5-cyano-6-{4-[(difluoromethyl)sulfonyl]piperazin-1-yl}pyridin-3-yl)-N,N-dimethylbenzamide] | 93 | 200 | 52 | 10500 | – | –
CCC(C)S(=O)(=O)N1CCN(c2ncc(-c3ccc(C(=O)N(C)C)c(Cl)c3)cc2C#N)CC1 (centres unmarked) [Example 1-4, 2-chloro-4-(5-cyano-6-{4-[(1-methylpropyl)sulfonyl]piperazin-1-yl}pyridin-3-yl)-N,N-dimethylbenzamide] | 81 | 279 | 44 | 49000 | – | –
CN(C)C(=O)c1ccc(-c2cnc(N3CCN(S(=O)(=O)C4CCCCC4)CC3)c(C#N)c2)cc1Cl [Example 1-7, 2-chloro-4-{5-cyano-6-[4-(cyclohexylsulfonyl)piperazin-1-yl]pyridin-3-yl}-N,N-dimethylbenzamide] | 79 | 337 | 39 | 14200 | – | –
CC(C)S(=O)(=O)N1CCN(c2ncc(-c3ccc(C(=O)N(C)C)c(Cl)c3)cc2C#N)CC1 [Example 1-15, 2-chloro-4-(5-cyano-6-{4-[(1-methylethyl)sulfonyl]piperazin-1-yl}pyridin-3-yl)-N,N-dimethylbenzamide] | 86 | 437 | 43 | 19500 | – | –
CN(C)C(=O)c1ccc(-c2cnc(N3CCN(S(=O)(=O)c4c(Cl)cccc4C(F)(F)F)CC3)c(C#N)c2)cc1Cl [Example 1-18, 2-chloro-4-[6-(4-{[2-chloro-6-(trifluoromethyl)phenyl]sulfonyl}piperazin-1-yl)-5-cyanopyridin-3-yl]-N,N-dimethylbenzamide] | 126 | 151 | 62 | 1670 | – | –
CN(C)C(=O)c1ccc(-c2cnc(N3CCN(C(=O)c4c(F)cccc4F)CC3)c(C#N)c2)cc1Cl [Example 2-1, 2-chloro-4-(5-cyano-6-{4-[(2,6-difluorophenyl)carbonyl]piperazin-1-yl}pyridin-3-yl)-N,N-dimethylbenzamide] | 40 | 212 | 23 | 8860 | – | –
CN(C)C(=O)c1ccc(-c2ccc(N3CCN(C(=O)c4c(F)cccc4F)CC3)c(Cl)c2)cc1Cl [Example 4-1, 3,3′-dichloro-4′-{4-[(2,6-difluorophenyl)carbonyl]piperazin-1-yl}-N,N-dimethylbiphenyl-4-carboxamide] | 90 | 833 | – | – | – | –

More lines, now with the values ahead:

Emax [1, 3] [%] | EC50 [1] [nM] | Emax [2, 3] [%] | EC50 [2] [nM] | LXR beta activity at max dose (%) (Emax) [1, 3] | LXR alpha activity at max dose (%) (Emax) [2, 3] | Structure (SMILES)
124 | 7 | 55 | 690 | – | – | CN(C)C(=O)c1ccc(-c2cnc(N3CCN(S(=O)(=O)c4c(Cl)cccc4Cl)CC3)c(C#N)c2)cc1Cl [Example 1-1, 2-chloro-4-(5-cyano-6-{4-[(2,6-dichlorophenyl)sulfonyl]piperazin-1-yl}pyridin-3-yl)-N,N-dimethylbenzamide]
85 | 939 | 31 | 60500 | – | – | CN(C)C(=O)c1ccc(-c2cnc(N3CCN(S(=O)(=O)c4cccnc4)CC3)c(C#N)c2)cc1Cl [Example 1-5, 2-chloro-4-{5-cyano-6-[4-(pyridin-3-ylsulfonyl)piperazin-1-yl]pyridin-3-yl}-N,N-dimethylbenzamide]
77 | 31 | 23 | 6840 | – | – | CN(C)C(=O)c1ccc(-c2cnc(N3CCN(S(=O)(=O)c4cccs4)CC3)c(C#N)c2)cc1Cl [Example 1-6, 2-chloro-4-{5-cyano-6-[4-(thiophen-2-ylsulfonyl)piperazin-1-yl]pyridin-3-yl}-N,N-dimethylbenzamide]
89 | 17 | 34 | 12100 | – | – | CN(C)C(=O)c1ccc(-c2cnc(N3CCN(S(=O)(=O)c4ccccc4F)CC3)c(C#N)c2)cc1Cl [Example 1-8, 2-chloro-4-(5-cyano-6-{4-[(2-fluorophenyl)sulfonyl]piperazin-1-yl}pyridin-3-yl)-N,N-dimethylbenzamide]
123 | 22 | 46 | 618 | – | – | CN(C)C(=O)c1ccc(-c2cnc(N3CCN(S(=O)(=O)c4ccccc4C#N)CC3)c(C#N)c2)cc1Cl [Example 1-9, 2-chloro-4-(5-cyano-6-{4-[(2-cyanophenyl)sulfonyl]piperazin-1-yl}pyridin-3-yl)-N,N-dimethylbenzamide]
65 | 162 | 18 | 733 | – | – | CN(C)C(=O)c1ccc(-c2cnc(N3CCN(S(=O)(=O)Cc4ccccc4F)CC3)c(C#N)c2)cc1Cl [Example 1-10, 2-chloro-4-(5-cyano-6-{4-[(2-fluorobenzyl)sulfonyl]piperazin-1-yl}pyridin-3-yl)-N,N-dimethylbenzamide]
108 | 8 | 51 | 3410 | – | – | CN(C)C(=O)c1ccc(-c2cnc(N3CCN(S(=O)(=O)c4ccccc4Cl)CC3)c(C#N)c2)cc1Cl [Example 1-11, 2-chloro-4-(6-{4-[(2-chlorophenyl)sulfonyl]piperazin-1-yl}-5-cyanopyridin-3-yl)-N,N-dimethylbenzamide]
97 | 28 | 27 | 7400 | – | – | CN(C)C(=O)c1ccc(-c2cnc(N3CCN(S(=O)(=O)Cc4ccccc4Cl)CC3)c(C#N)c2)cc1Cl [Example 1-12, 2-chloro-4-(6-{4-[(2-chlorobenzyl)sulfonyl]piperazin-1-yl}-5-cyanopyridin-3-yl)-N,N-dimethylbenzamide]
127 | 11 | 60 | 1000 | – | – | CN(C)C(=O)c1ccc(-c2cnc(N3CCN(S(=O)(=O)c4ccccc4C(F)(F)F)CC3)c(C#N)c2)cc1Cl [Example 1-13, 2-chloro-4-[5-cyano-6-(4-{[2-(trifluoromethyl)phenyl]sulfonyl}piperazin-1-yl)pyridin-3-yl]-N,N-dimethylbenzamide]
99 | 20 | 37 | 1050 | – | – | CN(C)C(=O)c1ccc(-c2cnc(N3CCN(S(=O)(=O)c4ccccc4OC(F)(F)F)CC3)c(C#N)c2)cc1Cl [Example 1-14, 2-chloro-4-[5-cyano-6-(4-{[2-(trifluoromethoxy)phenyl]sulfonyl}piperazin-1-yl)pyridin-3-yl]-N,N-dimethylbenzamide]
69 | 144 | 63 | 50500 | – | – | CN(C)C(=O)c1ccc(-c2cnc(N3CCN(S(=O)(=O)c4ccccc4)CC3)c(C#N)c2)cc1Cl [Example 1-16, 2-chloro-4-{5-cyano-6-[4-(phenylsulfonyl)piperazin-1-yl]pyridin-3-yl}-N,N-dimethylbenzamide]
98 | 43 | 36 | 4840 | – | – | CN(C)C(=O)c1ccc(-c2cnc(N3CCN(S(=O)(=O)c4c(F)cccc4F)CC3)c(C#N)c2)cc1Cl [Example 1-17, 2-chloro-4-(5-cyano-6-{4-[(2,6-difluorophenyl)sulfonyl]piperazin-1-yl}pyridin-3-yl)-N,N-dimethylbenzamide]
